Assay results as given in ChEMBL document CHEMBL5523676, “Design, synthesis, and anti-cancer evaluation of C-14 arylcarbamate derivatives of andrographolide” (Bioorg Med Chem, 2024).
pIC50: −log10 of the molar value. Calls of active or inactive are those of the source. No cut-off for these calls is given here.

Tests used:
PANC-1 [1] = experiment: Inhibition of p53 R273H protein level in human PANC-1 cells at 15 uM measured after 24 hrs by Western blot analysis; format: functional, cell-based
PANC-1 [2] = experiment: Antiproliferative activity against human PANC-1 cells assessed as inhibition of cell growth measured after 48 hrs by MTT assay; format: functional, cell-based; details: PANC-1, 48 h
MIA PaCa-2 [3] = experiment: Antiproliferative activity against human MIA PaCa-2 cells assessed as inhibition of cell growth measured after 48 hrs by MTT assay; format: functional, cell-based; details: MIA PaCa-2, 48 h
MIA PaCa-2 [4] = experiment: Antiproliferative activity against human MIA PaCa-2 cells assessed as suppression of cell growth at 30 uM measured after 48 hrs by MTT assay; format: functional, cell-based
MIA PaCa-2 [5] = experiment: Inhibition of p53 […] mutant protein level in human MIA PaCa-2 cells at 20 uM measured after 24 hrs by Western blot analysis; format: functional, cell-based
PANC-1 [6] = experiment: Antiproliferative activity against human PANC-1 cells assessed as inhibition of cell growth at upto 20 uM measured after 12 hrs by MTT assay; format: functional, cell-based
MIA PaCa-2 [7] = experiment: Inhibition of cell migration in human MIA PaCa-2 cells at 10 uM incubated for 24 hrs by crystal violet staining based microscopic analysis; format: functional
[8] = Antiproliferative activity against human IMR-90 cells assessed as inhibition of cell growth measured after 48 hrs by MTT assay; format: toxicity, cell-based
PANC-1 [9] = experiment: Inhibition of p53 R273H mutant protein level in human PANC-1 cells at 10 uM measured after 24 hrs by Western blot analysis; format: functional, cell-based
PANC-1 [10] = experiment: Inhibition of colony formation in human PANC-1 cells assessed as decrease in colony numbers measured after 24 hrs by crystal violet staining based analysis; format: functional, cell-based; details: dose 1-30 µM
PANC-1 [11] = experiment: Inhibition of cell migration in human PANC-1 cells at 10 uM incubated for 12 hrs by crystal violet staining based microscopic analysis; format: functional
MIA PaCa-2 [12] = experiment: Inhibition of colony formation in human MIA PaCa-2 cells at 1 to 30 uM measured after 24 hrs by crystal violet staining based analysis; format: functional, cell-based; details: dose 1-30 µM
[13] = Antiproliferative activity against human HPDE cells assessed as inhibition of cell growth measured after 48 hrs by MTT assay; format: toxicity, cell-based
[14] = Antiproliferative activity against human HEK293 cells assessed as inhibition of cell growth measured after 48 hrs by MTT assay; format: toxicity, cell-based

C=C1CC[C@@H]2[C@]3(C)COC(C)(C)O[C@@H]3CC[C@@]2(C)[C@@H]1C/C=C1/C(=O)OC[C@H]1OC(=O)Nc1cccc(C#N)c1
inhibition (PANC-1 [1]): Active
pIC50 (PANC-1 [2]): 4.82

C=C1CC[C@@H]2[C@]3(C)COC(C)(C)O[C@@H]3CC[C@@]2(C)[C@@H]1C/C=C1/C(=O)OC[C@H]1OC(=O)Nc1cc(F)ccc1F
inhibition (PANC-1 [1]): Active
pIC50 (MIA PaCa-2 [3]): < 4.52
pIC50 (PANC-1 [2]): 4.82

C=C1CC[C@@H]2[C@]3(C)COC(C)(C)O[C@@H]3CC[C@@]2(C)[C@@H]1C/C=C1/C(=O)OC[C@H]1OC(=O)Nc1ccc([N+](=O)[O-])cc1
pIC50 (PANC-1 [2]): 4.87

C=C1CC[C@@H]2[C@]3(C)COC(C)(C)O[C@@H]3CC[C@@]2(C)[C@@H]1C/C=C1/C(=O)OC[C@H]1OC(=O)Nc1ccc(Cl)cc1
pIC50 (PANC-1 [2]): 4.54

C=C1CC[C@@H]2[C@]3(C)COC(C)(C)O[C@@H]3CC[C@@]2(C)[C@@H]1C/C=C1/C(=O)OC[C@H]1OC(=O)Nc1cccc(OC)c1
pIC50 (PANC-1 [2]): 4.97

C=C1CC[C@@H]2[C@]3(C)COC(C)(C)O[C@@H]3CC[C@@]2(C)[C@@H]1C/C=C1/C(=O)OC[C@H]1OC(=O)Nc1ccc(Br)cc1
pIC50 (MIA PaCa-2 [3]): < 4.52
pIC50 (PANC-1 [2]): 4.99

C=C1CC[C@@H]2[C@]3(C)COC(C)(C)O[C@@H]3CC[C@@]2(C)[C@@H]1C/C=C1/C(=O)OC[C@H]1OC(=O)Nc1ccc(NC(C)=O)cc1
pIC50 (PANC-1 [2]): < 4.52

C=C1CC[C@@H]2[C@]3(C)COC(C)(C)O[C@@H]3CC[C@@]2(C)[C@@H]1C/C=C1/C(=O)OC[C@H]1OC(=O)Nc1cccc(C(F)(F)F)c1
pIC50 (PANC-1 [2]): < 4.52

C=C1CC[C@@H]2[C@]3(C)COC(C)(C)O[C@@H]3CC[C@@]2(C)[C@@H]1C/C=C1/C(=O)OC[C@H]1OC(=O)Nc1ccc(F)cc1F
pIC50 (PANC-1 [2]): < 4.52
Activity (MIA PaCa-2 [4]): Active

C=C1CC[C@@H]2[C@]3(C)COC(C)(C)O[C@@H]3CC[C@@]2(C)[C@@H]1C/C=C1/C(=O)OC[C@H]1OC(=O)Nc1ccccc1
inhibition (MIA PaCa-2 [5]): Active
Activity (PANC-1 [6]): inactive
inhibition (MIA PaCa-2 [7]): Active
pIC50 (MIA PaCa-2 [3]): 4.59
IC50 at 48 h [8]: > 30 µM
inhibition (PANC-1 [9]): Active
pIC50 (PANC-1 [2]): 5.02
inhibition (PANC-1 [10]): Dose-Dependent Effect
inhibition (PANC-1 [11]): Active
inhibition (MIA PaCa-2 [12]): Active
IC50 at 48 h [13]: > 30 µM
Activity (MIA PaCa-2 [4]): Active
IC50 at 48 h [14]: > 30 µM

C=C1CC[C@@H]2[C@](C)(CO)[C@H](O)CC[C@@]2(C)[C@@H]1C/C=C1/C(=O)OC[C@H]1O [ANDROGRAPHOLIDE]
Activity (PANC-1 [6]): inactive
pIC50 (MIA PaCa-2 [3]): 4.68
pIC50 (PANC-1 [2]): 4.69
inhibition (PANC-1 [10]): Dose-Dependent Effect
inhibition (PANC-1 [11]): Active
Activity (MIA PaCa-2 [4]): Active

C=C1CC[C@@H]2[C@]3(C)COC(C)(C)O[C@@H]3CC[C@@]2(C)[C@@H]1C/C=C1/C(=O)OC[C@H]1OC(=O)Nc1cc(C)cc(C)c1
pIC50 (PANC-1 [2]): < 4.52

C=C1CC[C@@H]2[C@]3(C)COC(C)(C)O[C@@H]3CC[C@@]2(C)[C@@H]1C/C=C1/C(=O)OC[C@H]1OC(=O)Nc1cccc(C(C)=O)c1
inhibition (MIA PaCa-2 [5]): Active
pIC50 (MIA PaCa-2 [3]): < 4.52
inhibition (PANC-1 [9]): Active
pIC50 (PANC-1 [2]): 4.96

C=C1CC[C@@H]2[C@]3(C)COC(C)(C)O[C@@H]3CC[C@@]2(C)[C@@H]1C/C=C1/C(=O)OC[C@H]1OC(=O)Nc1cccc(Br)c1
pIC50 (PANC-1 [2]): 4.80
